According to patent US9211310B2, “Use of a Chinese medicine composition in preparing medicaments for treating secondary prevention of myocardial infarction” (TASLY PHARMACEUTICAL GROUP CO., LTD, priority 2010, dated 2015):

Test system: patients after acute myocardial infarction
Assay: Life quality, Seattle Angina Questionnaire (SAQ), same clinical trial
Assay type: in vivo, human
Settings: FAS
Text: 3508 patients who were in accordance with the diagnostic standards of AMI for 28 days to 2 years and differentiated as Qi deficiency and blood stagnation syndrome by TCM were studied. 0.5 g Chinese medicine composition prepared by the method of EXAMPLE 1 (Coded as QSYQ) was administrated half an hour after meal, 3 times per day.
There were 19 questions in the Seattle angina questionnaire (SAQ), including 5 parts: physical limitation (PL), anginal stability (AS), anginal frequency (AF), treatment satisfaction (TS) and disease perception (DP). After being given necessary explanation by doctors, the questions were answered independently by patients.
They included the overall survival time, angina pectoris score, TCM symptom score and life quality score, where angina pectoris score, TCM symptom score and life quality score were evaluated at randomization, in 1st, 3rd, 6th, 9th, 12th month after treatment and 18th month after follow-up.
All evaluation results of SAQ were described during the period of observation, and Wilcoxon rank sum test was used for inter-group comparison.
The evaluation results in the SAQ were depicted in different observations, and inter-group comparison was tested by Wilcoxon Rank-sum test.

## CC(=O)Oc1ccccc1C(=O)O [Control group, aspirine]
1 month after treatment
  SAQ Question 1-2 Moderately limited, number of patients: 14
  SAQ Question 1-2 Moderately limited, percent of patients: (0.80%)
  SAQ Question 1-2 Not limited, number of patients: 1575
  SAQ Question 1-2 Not limited, percent of patients: (90.36%)
  SAQ Question 1-2 Other reasons, number of patients: 6
  SAQ Question 1-2 Other reasons, percent of patients: (0.34%)
  SAQ Question 1-2 Severely limited, number of patients: 0
  SAQ Question 1-2 Severely limited, percent of patients: (0.00%)
  SAQ Question 1-2 Slightly limited, percent of patients: (6.66%)
  SAQ Question 1-6: Mildly limited, patients (%): (18.54%)
  SAQ Question 1-6: Moderately limited, patients (%): (14.85%)
  SAQ Question 1-6: Not limited, patients (%): (29.59%)
  SAQ Question 1-6: Other reasons, patients (%): (0.81%)
  SAQ Question 1-6: Severely limited, patients (%): (5.18%)
  SAQ Question 1-6: Slightly limited, patients (%): (31.03%)
  SAQ Question 1-7: Mildly limited, patients (%): (23.73%)
  SAQ Question 1-7: Moderately limited, patients (%): (17.45%)
  SAQ Question 1-7: Not limited, patients (%): (12.86%)
  SAQ Question 1-7: Other reasons, patients (%): (2.85%)
  SAQ Question 1-7: Severely limited, patients (%): (17.68%)
  SAQ Question 1-7: Slightly limited, patients (%): (25.42%)
  SAQ Question 1-8: Mildly limited, patients (%): (24.13%)
  SAQ Question 1-8: Moderately limited, patients (%): (20.52%)
  SAQ Question 1-8: Not limited, patients (%): (9.01%)
  SAQ Question 1-8: Other reasons, patients (%): (2.79%)
  SAQ Question 1-8: Severely limited, patients (%): (22.27%)
  SAQ Question 1-8: Slightly limited, patients (%): (21.28%)
3 months after treatment
  8th question: Dissatisfied, patients (%): (0.17%)
  8th question: Highly satisfied, patients (%): (19.09%)
  8th question: Mostly dissatisfied, patients (%): (3.10%)
  8th question: Mostly satisfied, patients (%): (52.81%)
  8th question: Partly satisfied, patients (%): (24.83%)
  9th question: Few, patients (%): (31.88%)
  9th question: Mild, patients (%): (33.54%)
  9th question: Moderate, patients (%): (15.60%)
  9th question: Severe, patients (%): (1.49%)
  9th question: Uneffective, patients (%): (17.49%)
  10th question: Dissatisfied, patients (%): (21.33%)
  10th question: Highly satisfied, patients (%): (4.70%)
  10th question: Mostly dissatisfied, patients (%): (22.19%)
  10th question: Mostly satisfied, patients (%): (24.20%)
  10th question: Partly satisfied, patients (%): (27.58%)
  11th question: Continuously worried, patients (%): (5.39%)
  11th question: No worried, patients (%): (4.87%)
  11th question: Occasionally worried, patients (%): (40.94%)
  11th question: Often worried, patients (%): (18.29%)
  11th question: Seldom worried, patients (%): (30.50%)
  SAQ 4th question, 1-2 times per week: % of patients: (16.69%)
  SAQ 4th question, 1-2 times per week: number of patients: 291
  SAQ 4th question, 1-3 times per day: % of patients: (5.56%)
  SAQ 4th question, 1-3 times per day: number of patients: 97
  SAQ 4th question, <1 time per week: % of patients: (11.47%)
  SAQ 4th question, <1 time per week: number of patients: 200
  SAQ 4th question, Not used: % of patients: (55.50%)
  SAQ 4th question, Not used: number of patients: 968
  SAQ 4th question, ≧3 times per week: % of patients: (10.72%)
  SAQ 4th question, ≧3 times per week: number of patients: 187
  SAQ 4th question, ≧4 times per day: % of patients: (0.06%)
  SAQ 4th question, ≧4 times per day: number of patients: 1
  SAQ 5th question, Few: % of patients: (24.60%)
  SAQ 5th question, Few: number of patients: 429
  SAQ 5th question, Mild: % of patients: (26.26%)
  SAQ 5th question, Mild: number of patients: 458
  SAQ 5th question, Moderate: % of patients: (15.65%)
  SAQ 5th question, Moderate: number of patients: 273
  SAQ 5th question, None: % of patients: (27.41%)
  SAQ 5th question, None: number of patients: 478
  SAQ 5th question, Not medicated by doctors: % of patients: (4.36%)
  SAQ 5th question, Not medicated by doctors: number of patients: 76
  SAQ 5th question, Severe: % of patients: (1.72%)
  SAQ 5th question, Severe: number of patients: 30
  SAQ 6th question, Dissatisfied: % of patients: (0.23%)
  SAQ 6th question, Dissatisfied: number of patients: 4
  SAQ 6th question, Highly satisfied: % of patients: (19.61%)
  SAQ 6th question, Highly satisfied: number of patients: 342
  SAQ 6th question, Mostly dissatisfied: % of patients: (2.64%)
  SAQ 6th question, Mostly dissatisfied: number of patients: 46
  SAQ 6th question, Mostly satisfied: % of patients: (51.83%)
  SAQ 6th question, Mostly satisfied: number of patients: 904
  SAQ 6th question, Partly satisfied: % of patients: (25.69%)
  SAQ 6th question, Partly satisfied: number of patients: 448
  SAQ 7th question, Dissatisfied: % of patients: (0.11%)
  SAQ 7th question, Dissatisfied: number of patients: 2
  SAQ 7th question, Highly satisfied: % of patients: (22.68%)
  SAQ 7th question, Highly satisfied: number of patients: 395
  SAQ 7th question, Mostly dissatisfied: % of patients: (1.95%)
  SAQ 7th question, Mostly dissatisfied: number of patients: 34
  SAQ 7th question, Mostly satisfied: % of patients: (54.08%)
  SAQ 7th question, Mostly satisfied: number of patients: 942
  SAQ 7th question, Partly satisfied: % of patients: (21.18%)
  SAQ 7th question, Partly satisfied: number of patients: 369
  SAQ Question 1-1 Mildly limited, number of patients: 26
  SAQ Question 1-1 Mildly limited, percent of patients: (1.49%)
  SAQ Question 1-1 Moderately limited, number of patients: 7
  SAQ Question 1-1 Moderately limited, percent of patients: (0.40%)
  SAQ Question 1-1 Not limited, number of patients: 1634
  SAQ Question 1-1 Not limited, percent of patients: (93.69%)
  SAQ Question 1-1 Other reasons, number of patients: 4
  SAQ Question 1-1 Other reasons, percent of patients: (0.23%)
  SAQ Question 1-1 Severely limited, number of patients: 1
  SAQ Question 1-1 Severely limited, percent of patients: (0.06%)
  SAQ Question 1-1 Slightly limited, number of patients: 72
  SAQ Question 1-1 Slightly limited, percent of patients: (4.13%)
  SAQ Question 1-2 Mildly limited, number of patients: 23
  SAQ Question 1-2 Mildly limited, percent of patients: (1.32%)
  SAQ Question 1-2 Moderately limited, number of patients: 10
  SAQ Question 1-2 Moderately limited, percent of patients: (0.57%)
  SAQ Question 1-2 Not limited, number of patients: 1603
  SAQ Question 1-2 Not limited, percent of patients: (91.92%)
  SAQ Question 1-2 Other reasons, number of patients: 7
  SAQ Question 1-2 Other reasons, percent of patients: (0.40%)
  SAQ Question 1-2 Severely limited, number of patients: 0
  SAQ Question 1-2 Severely limited, percent of patients: (0.00%)
  SAQ Question 1-2 Slightly limited, number of patients: 101
  SAQ Question 1-2 Slightly limited, percent of patients: (5.79%)
  SAQ Question 1-6: Mildly limited, patients (%): (18.23%)
  SAQ Question 1-6: Moderately limited, patients (%): (13.05%)
  SAQ Question 1-6: Not limited, patients (%): (31.45%)
  SAQ Question 1-6: Other reasons, patients (%): (0.92%)
  SAQ Question 1-6: Severely limited, patients (%): (4.14%)
  SAQ Question 1-6: Slightly limited, patients (%): (32.20%)
  SAQ Question 1-7: Mildly limited, patients (%): (23.77%)
  SAQ Question 1-7: Moserately limited, patients (%): (15.07%)
  SAQ Question 1-7: Not limited, patients (%): (13.91%)
  SAQ Question 1-7: Other reasons, patients (%): (3.01%)
  SAQ Question 1-7: Severely limited, patients (%): (15.88%)
  SAQ Question 1-7: Slightly limited, patients (%): (28.35%)
  SAQ Question 1-8: Mildly limited, patients (%): (25.55%)
  SAQ Question 1-8: Moderately limited, patients (%): (17.89%)
  SAQ Question 1-8: Not limited, patients (%): (10.69%)
  SAQ Question 1-8: Other reasons, patients (%): (3.02%)
  SAQ Question 1-8: Severely limieted, patients (%): (21.02%)
  SAQ Question 1-8: Slightly limited, patients (%): (21.84%)
6 months after treatment
  8th question: Dissatisfied, patients (%): (0.17%)
  8th question: Highly satisfied, patients (%): (20.30%)
  8th question: Mostly satisfied, patients (%): (56.59%)
  8th question: Partly satisfied, patients (%): (20.70%)
  9th question: Few, patients (%): (34.75%)
  9th question: Mild, patients (%): (34.63%)
  9th question: Severe, patients (%): (0.86%)
  9th question: Uneffective, patients (%): (18.12%)
  10th question: Dissatisfied, patients (%): (20.87%)
  10th question: Highly satisfied, patients (%): (4.64%)
  10th question: Mostly dissatisfied, patients (%): (21.56%)
  10th question: Mostly satisfied, patients (%): (26.61%)
  10th question: Partly satisfied, patients (%): (26.32%)
  11th question: Continuously worried, patients (%): (4.42%)
  11th question: No worried, patients (%): (4.93%)
  11th question: Occasionally worried, patients (%): (41.69%)
  11th question: Often worried, patients (%): (14.85%)
  11th question: Seldom worried, patients (%): (34.12%)
  SAQ 4th question, 1-2 times per week: % of patients: (17.55%)
  SAQ 4th question, 1-2 times per week: number of patients: 306
  SAQ 4th question, 1-3 times per day: % of patients: (4.70%)
